Tested on: fibrosis-encapsulated tumoroid (FET)
Assay: Anticancer drug resistance test of fibrosis-encapsulated tumoroid (cell viability measurement)
Type: cell-based, human
Conditions: cisplatin, 100 µM; fibrosis-encapsulated tumoroid (FET) compared to the simple tumoroid (tumor only); FIG. 10B
Procedure: The present inventors performed a drug resistance test in order to evaluate whether it was possible to select drugs, which can be effective in the clinical stage, using the fibrosis-encapsulated tumoroid which is a solid cancer tissue analogue produced by the methods of Examples 1 to 4 (see FIGS. 10A and 10B). […] The drug test was conducted through cell viability measurement. The cell viability of each of the group containing the anticancer drug and the control group not containing the anticancer drug was measured after replacing the medium with maintenance medium. […] The cell viability of the solid cancer tissue analogue was measured using Promega’s CellTiter-Glo luminescent cell viability assay as another measurement method, and the death of cancer cells by the anticancer drug could be indirectly confirmed by comparison with the control group. […] The fibrosis-encapsulated tumoroid produced as described above mimicked a series of processes in which the anticancer agent passes sequentially through the blood vessel wall and fibrotic tissue and reaches cancer tissue, in the same way as in the human body. Thus, it is preferable to finally produce the eFET and conduct an anticancer drug test using the eFET, but only the FET may be selectively used in order to reduce cost or time. […]

## N.N.[Cl][Pt][Cl] [cisplatin]
  resistance to the anticancer drug (cell viability): statistically significant resistance

Source: patent US20230071222A1, “METHOD FOR PREPARING FIBROSIS-ENCAPSULATED TUMOROID, AND USE THEREOF” (INDUSTRY-ACADEMIC COOPERATION FOUNDATION, YONSEI UNIVERSITY, priority 2020, published 2023)
